Source: BigSolDB 2.1

CC(C)C[C@H](N)C(=O)O
solubility (mole fraction)
Conditions	283.15 K	288.15 K	293.15 K	298.15 K	303.15 K	308.15 K	313.15 K	318.15 K	323.15 K	328.15 K
in 1,4-dioxane	–	3.61e-05	5.3e-05	7.25e-05	9.39e-05	0.000122	0.000149	0.00019	0.000238	0.000309
in acetone	3.16e-05	4.52e-05	6.31e-05	8.39e-05	0.00011	0.000145	0.000179	0.000218	0.000269	–
in acetonitrile	3.87e-05	4.44e-05	5.02e-05	5.71e-05	6.68e-05	7.59e-05	8.6e-05	0.000102	0.000123	–
in ethanol	0.000146	0.00015	0.000156	0.000171	0.00019	0.000206	0.000221	0.000286	0.00034	–
in ethyl acetate	0.000156	0.000169	0.000197	0.000222	0.00026	0.000303	0.000341	0.000396	0.000449	–
in isobutanol	0.000152	0.000157	0.000162	0.000175	0.000201	0.000228	0.000254	0.000304	0.00035	–
in isopropanol	0.000156	0.00016	0.000173	0.000187	0.000212	0.000254	0.000271	0.000318	0.000368	–
in methanol	0.000558	0.000588	0.000655	0.000686	0.000744	0.000817	0.000896	0.001	0.00118	–
in methyl acetate	0.000158	0.000162	0.000168	0.000178	0.000192	0.000211	0.000227	0.000254	0.000287	–
in n-butanol	2.59e-05	2.78e-05	4.16e-05	5.42e-05	7.83e-05	0.000103	0.000129	0.000171	0.000215	–
in n-propanol	9.7e-05	0.000107	0.000123	0.000142	0.000163	0.000187	0.000217	0.00026	0.000316	–
in water	0.00322	0.00326	0.00331	0.00339	0.00348	0.00358	0.00374	0.00385	0.00404	–
